Measurements as given in the supplement of paper PMC10307832.

Assays:
Assay in all cases: relative viability (nuclei count vs DMSO), 5 days (fraction); higher = more cells survive
Cediranib + Navitoclax = compound: COc1cc2c(Oc3ccc4[nH]c(C)cc4c3F)ncnc2cc1OCCCN1CCCC1 [Cediranib] + CC1(C)CCC(c2ccc(Cl)cc2)=C(CN2CCN(c3ccc(C(=O)NS(=O)(=O)c4ccc(N[C@H](CCN5CCOCC5)CSc5ccccc5)c(S(=O)(=O)C(F)(F)F)c4)cc3)CC2)C1 [Navitoclax] (partner 0.5 µM)
In short: (§1)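 For relative viability, nuclei counts in treated wells were divided by those in vehicle wells. Lung cancer cell lines had been pin-tool dosed in 1536-well plates the day after seeding and cultured for 5 days, then fixed and stained in one step (final 0.05% Triton X-100, 1% formaldehyde, 1 ug/ml Hoechst) and imaged at 4×. Doses were one drug alone or a fixed anchor-drug dose plus five library-drug doses (not always all listed) in √10 steps, and values are duplicate-plate medians.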

Decitabine + Navitoclax = compound: Nc1ncn([C@H]2C[C@H](O)[C@@H](CO)O2)c(=O)n1 [Decitabine] + CC1(C)CCC(c2ccc(Cl)cc2)=C(CN2CCN(c3ccc(C(=O)NS(=O)(=O)c4ccc(N[C@H](CCN5CCOCC5)CSc5ccccc5)c(S(=O)(=O)C(F)(F)F)c4)cc3)CC2)C1 [Navitoclax] (partner 0.5 µM)
In short: as §1

Decitabine + Linsitinib = compound: Nc1ncn([C@H]2C[C@H](O)[C@@H](CO)O2)c(=O)n1 [Decitabine] + C[C@]1(O)C[C@@H](c2nc(-c3ccc4ccc(-c5ccccc5)nc4c3)c3c(N)nccn32)C1 [Linsitinib] (partner 1 µM)
In short: as §1

Decitabine + Phenformin = compound: Nc1ncn([C@H]2C[C@H](O)[C@@H](CO)O2)c(=O)n1 [Decitabine] + N=C(N)NC(=N)NCCc1ccccc1 [Phenformin] (partner 250 µM)
In short: as §1

SK-MES-1 showed a relative viability (Cediranib + Navitoclax; first compound 0.04 µM) of 1.23, a relative viability (Cediranib + Navitoclax; first compound 0.1265 µM) of 1.36 and a relative viability (Cediranib + Navitoclax; first compound 0.4 µM) of 1.13. It also gave a relative viability (Cediranib + Navitoclax; first compound 1.265 µM) of 1.21, a relative viability (Cediranib + Navitoclax; first compound 4 µM) of 1.2 and a relative viability (Decitabine + Navitoclax; first compound 0.04 µM) of 0.976. It also gave a relative viability (Decitabine + Navitoclax; first compound 0.1265 µM) of 0.84, a relative viability (Decitabine + Navitoclax; first compound 0.4 µM) of 0.501 and a relative viability (Decitabine + Navitoclax; first compound 1.265 µM) of 0.33. The relative viability (Decitabine + Navitoclax; first compound 4 µM) was 0.303, the relative viability (Decitabine + Linsitinib; first compound 0.04 µM) was 0.928 and the relative viability (Decitabine + Linsitinib; first compound 0.1265 µM) was 0.845. It also gave a relative viability (Decitabine + Linsitinib; first compound 0.4 µM) of 0.554, a relative viability (Decitabine + Linsitinib; first compound 1.265 µM) of 0.437 and a relative viability (Decitabine + Linsitinib; first compound 4 µM) of 0.339. For the same cell line, the relative viability (Decitabine + Phenformin; first compound 0.04 µM) was 0.535, the relative viability (Decitabine + Phenformin; first compound 0.1265 µM) was 0.553 and the relative viability (Decitabine + Phenformin; first compound 0.4 µM) was 0.346. For the same cell line, the relative viability (Decitabine + Phenformin; first compound 1.265 µM) was 0.271 and the relative viability (Decitabine + Phenformin; first compound 4 µM) was 0.291.
Work on NCI-H2126 yielded a relative viability (Cediranib + Navitoclax; first compound 0.04 µM) of 0.8, a relative viability (Cediranib + Navitoclax; first compound 0.1265 µM) of 0.934 and a relative viability (Cediranib + Navitoclax; first compound 0.4 µM) of 0.781. The relative viability (Cediranib + Navitoclax; first compound 1.265 µM) was 0.811, the relative viability (Cediranib + Navitoclax; first compound 4 µM) was 0.914 and the relative viability (Decitabine + Navitoclax; first compound 0.04 µM) was 0.777. For the same cell line, the relative viability (Decitabine + Navitoclax; first compound 0.1265 µM) was 0.787, the relative viability (Decitabine + Navitoclax; first compound 0.4 µM) was 0.548 and the relative viability (Decitabine + Navitoclax; first compound 1.265 µM) was 0.491. The relative viability (Decitabine + Navitoclax; first compound 4 µM) was 0.574, the relative viability (Decitabine + Linsitinib; first compound 0.04 µM) was 0.698 and the relative viability (Decitabine + Linsitinib; first compound 0.1265 µM) was 0.677. It also gave a relative viability (Decitabine + Linsitinib; first compound 0.4 µM) of 0.591, a relative viability (Decitabine + Linsitinib; first compound 1.265 µM) of 0.533 and a relative viability (Decitabine + Linsitinib; first compound 4 µM) of 0.489. For the same cell line, the relative viability (Decitabine + Phenformin; first compound 0.04 µM) was 0.478, the relative viability (Decitabine + Phenformin; first compound 0.1265 µM) was 0.483 and the relative viability (Decitabine + Phenformin; first compound 0.4 µM) was 0.423. The relative viability (Decitabine + Phenformin; first compound 1.265 µM) was 0.451 and the relative viability (Decitabine + Phenformin; first compound 4 µM) was 0.468.
For EPLC-272H, the relative viability (Cediranib + Navitoclax; first compound 0.04 µM) was 1.35, the relative viability (Cediranib + Navitoclax; first compound 0.4 µM) was 1.05 and the relative viability (Cediranib + Navitoclax; first compound 1.265 µM) was 1.15. For the same cell line, the relative viability (Cediranib + Navitoclax; first compound 4 µM) was 1.27, the relative viability (Decitabine + Navitoclax; first compound 0.04 µM) was 0.734 and the relative viability (Decitabine + Navitoclax; first compound 0.1265 µM) was 0.658. For the same cell line, the relative viability (Decitabine + Navitoclax; first compound 1.265 µM) was 0.426, the relative viability (Decitabine + Navitoclax; first compound 4 µM) was 0.413 and the relative viability (Decitabine + Linsitinib; first compound 0.04 µM) was 0.811. The relative viability (Decitabine + Linsitinib; first compound 0.1265 µM) was 0.939, the relative viability (Decitabine + Linsitinib; first compound 1.265 µM) was 0.596 and the relative viability (Decitabine + Linsitinib; first compound 4 µM) was 0.548. For the same cell line, the relative viability (Decitabine + Phenformin; first compound 0.1265 µM) was 0.26, the relative viability (Decitabine + Phenformin; first compound 0.4 µM) was 0.0458 and the relative viability (Decitabine + Phenformin; first compound 1.265 µM) was 0.223. For the same cell line, the relative viability (Decitabine + Phenformin; first compound 4 µM) was 0.199.
With NCI-H1975 the relative viability (Cediranib + Navitoclax; first compound 0.04 µM) was 1.18, the relative viability (Cediranib + Navitoclax; first compound 0.1265 µM) was 1.13 and the relative viability (Cediranib + Navitoclax; first compound 0.4 µM) was 0.956. The relative viability (Cediranib + Navitoclax; first compound 1.265 µM) was 1.19, the relative viability (Cediranib + Navitoclax; first compound 4 µM) was 1.21 and the relative viability (Decitabine + Navitoclax; first compound 0.04 µM) was 0.431. The relative viability (Decitabine + Navitoclax; first compound 0.1265 µM) was 0.317, the relative viability (Decitabine + Navitoclax; first compound 0.4 µM) was 0.291 and the relative viability (Decitabine + Navitoclax; first compound 1.265 µM) was 0.256. It also gave a relative viability (Decitabine + Navitoclax; first compound 4 µM) of 0.256, a relative viability (Decitabine + Linsitinib; first compound 0.04 µM) of 0.706 and a relative viability (Decitabine + Linsitinib; first compound 0.1265 µM) of 0.525. It also gave a relative viability (Decitabine + Linsitinib; first compound 0.4 µM) of 0.346, a relative viability (Decitabine + Linsitinib; first compound 1.265 µM) of 0.326 and a relative viability (Decitabine + Linsitinib; first compound 4 µM) of 0.369. For the same cell line, the relative viability (Decitabine + Phenformin; first compound 0.04 µM) was 0.281, the relative viability (Decitabine + Phenformin; first compound 0.1265 µM) was 0.27 and the relative viability (Decitabine + Phenformin; first compound 0.4 µM) was 0.214. The relative viability (Decitabine + Phenformin; first compound 1.265 µM) was 0.229 and the relative viability (Decitabine + Phenformin; first compound 4 µM) was 0.197.
Cell Line NCI-H3122 has a relative viability (Cediranib + Navitoclax; first compound 0.04 µM) of 1.05, a relative viability (Cediranib + Navitoclax; first compound 0.1265 µM) of 1.03 and a relative viability (Cediranib + Navitoclax; first compound 0.4 µM) of 1.05. It also gave a relative viability (Cediranib + Navitoclax; first compound 1.265 µM) of 0.998, a relative viability (Cediranib + Navitoclax; first compound 4 µM) of 1.02 and a relative viability (Decitabine + Navitoclax; first compound 0.04 µM) of 0.999. It also gave a relative viability (Decitabine + Navitoclax; first compound 0.1265 µM) of 0.984, a relative viability (Decitabine + Navitoclax; first compound 0.4 µM) of 0.97 and a relative viability (Decitabine + Navitoclax; first compound 1.265 µM) of 0.886. The relative viability (Decitabine + Navitoclax; first compound 4 µM) was 0.76, the relative viability (Decitabine + Linsitinib; first compound 0.04 µM) was 1.01 and the relative viability (Decitabine + Linsitinib; first compound 0.1265 µM) was 1.01. The relative viability (Decitabine + Linsitinib; first compound 0.4 µM) was 0.941, the relative viability (Decitabine + Linsitinib; first compound 1.265 µM) was 0.788 and the relative viability (Decitabine + Linsitinib; first compound 4 µM) was 0.711. It also gave a relative viability (Decitabine + Phenformin; first compound 0.04 µM) of 0.371, a relative viability (Decitabine + Phenformin; first compound 0.1265 µM) of 0.364 and a relative viability (Decitabine + Phenformin; first compound 0.4 µM) of 0.342. It also gave a relative viability (Decitabine + Phenformin; first compound 4 µM) of 0.315.
COR-L 105 showed a relative viability (Cediranib + Navitoclax; first compound 0.1265 µM) of 0.842, a relative viability (Cediranib + Navitoclax; first compound 0.4 µM) of 0.733 and a relative viability (Cediranib + Navitoclax; first compound 1.265 µM) of 0.756. For the same cell line, the relative viability (Cediranib + Navitoclax; first compound 4 µM) was 0.693, the relative viability (Decitabine + Navitoclax; first compound 0.04 µM) was 0.539 and the relative viability (Decitabine + Navitoclax; first compound 0.1265 µM) was 0.534. For the same cell line, the relative viability (Decitabine + Navitoclax; first compound 0.4 µM) was 0.437, the relative viability (Decitabine + Navitoclax; first compound 1.265 µM) was 0.318 and the relative viability (Decitabine + Navitoclax; first compound 4 µM) was 0.316. For the same cell line, the relative viability (Decitabine + Linsitinib; first compound 0.04 µM) was 1.02, the relative viability (Decitabine + Linsitinib; first compound 0.1265 µM) was 0.768 and the relative viability (Decitabine + Linsitinib; first compound 0.4 µM) was 0.738. For the same cell line, the relative viability (Decitabine + Linsitinib; first compound 1.265 µM) was 0.506, the relative viability (Decitabine + Linsitinib; first compound 4 µM) was 0.486 and the relative viability (Decitabine + Phenformin; first compound 0.04 µM) was 0.308. The relative viability (Decitabine + Phenformin; first compound 0.1265 µM) was 0.441, the relative viability (Decitabine + Phenformin; first compound 0.4 µM) was 0.383 and the relative viability (Decitabine + Phenformin; first compound 1.265 µM) was 0.308. For the same cell line, the relative viability (Decitabine + Phenformin; first compound 4 µM) was 0.421.
BEN showed a relative viability (Cediranib + Navitoclax; first compound 0.04 µM) of 0.0686, a relative viability (Cediranib + Navitoclax; first compound 0.1265 µM) of 0.0663 and a relative viability (Cediranib + Navitoclax; first compound 0.4 µM) of 0.0683. The relative viability (Cediranib + Navitoclax; first compound 1.265 µM) was 0.0702, the relative viability (Cediranib + Navitoclax; first compound 4 µM) was 0.0649 and the relative viability (Decitabine + Navitoclax; first compound 0.04 µM) was 0.0613. The relative viability (Decitabine + Navitoclax; first compound 0.1265 µM) was 0.0587, the relative viability (Decitabine + Navitoclax; first compound 0.4 µM) was 0.0516 and the relative viability (Decitabine + Navitoclax; first compound 1.265 µM) was 0.0522. It also gave a relative viability (Decitabine + Navitoclax; first compound 4 µM) of 0.0591, a relative viability (Decitabine + Linsitinib; first compound 0.04 µM) of 0.994 and a relative viability (Decitabine + Linsitinib; first compound 0.1265 µM) of 0.809. The relative viability (Decitabine + Linsitinib; first compound 0.4 µM) was 0.671, the relative viability (Decitabine + Linsitinib; first compound 1.265 µM) was 0.46 and the relative viability (Decitabine + Linsitinib; first compound 4 µM) was 0.43. It also gave a relative viability (Decitabine + Phenformin; first compound 0.04 µM) of 0.28, a relative viability (Decitabine + Phenformin; first compound 0.1265 µM) of 0.261 and a relative viability (Decitabine + Phenformin; first compound 0.4 µM) of 0.259. For the same cell line, the relative viability (Decitabine + Phenformin; first compound 1.265 µM) was 0.239 and the relative viability (Decitabine + Phenformin; first compound 4 µM) was 0.245.
NCI-H1915 was tested, and the relative viability (Cediranib + Navitoclax; first compound 0.04 µM) was 0.787, the relative viability (Cediranib + Navitoclax; first compound 0.1265 µM) was 0.721 and the relative viability (Cediranib + Navitoclax; first compound 0.4 µM) was 0.805. For the same cell line, the relative viability (Cediranib + Navitoclax; first compound 1.265 µM) was 0.788, the relative viability (Cediranib + Navitoclax; first compound 4 µM) was 0.811 and the relative viability (Decitabine + Navitoclax; first compound 0.04 µM) was 0.338. The relative viability (Decitabine + Navitoclax; first compound 0.1265 µM) was 0.253, the relative viability (Decitabine + Navitoclax; first compound 0.4 µM) was 0.223 and the relative viability (Decitabine + Navitoclax; first compound 1.265 µM) was 0.184. For the same cell line, the relative viability (Decitabine + Navitoclax; first compound 4 µM) was 0.188, the relative viability (Decitabine + Linsitinib; first compound 0.04 µM) was 0.586 and the relative viability (Decitabine + Linsitinib; first compound 0.1265 µM) was 0.396. The relative viability (Decitabine + Linsitinib; first compound 0.4 µM) was 0.353, the relative viability (Decitabine + Linsitinib; first compound 1.265 µM) was 0.286 and the relative viability (Decitabine + Linsitinib; first compound 4 µM) was 0.276. It also gave a relative viability (Decitabine + Phenformin; first compound 0.04 µM) of 0.291, a relative viability (Decitabine + Phenformin; first compound 0.1265 µM) of 0.294 and a relative viability (Decitabine + Phenformin; first compound 0.4 µM) of 0.274. It also gave a relative viability (Decitabine + Phenformin; first compound 1.265 µM) of 0.242 and a relative viability (Decitabine + Phenformin; first compound 4 µM) of 0.26.
